Results on 19 compounds are retold here after patent US7081460B2, “Quinazoline and quinazoline-like compounds for the treatment of integrin-mediated disorders” (Ortho-McNeil Pharmaceutical, Inc., priority 2001, dated 2006).

The target of one experiment is T1, Human αvβ3 (Homo sapiens, UniProt P05106+P06756).
T1 construct: purchased Chemicon International Inc., Temecula, Calif
The experiment is described as follows: In vitro solid phase purified αvβ3 binding assay (vitronectin/αvβ3). Particulars: isolated human αvβ3, 5 nM vitronectin; read-out: αvβ3 Binding IC50. On the procedure: (§1) In vitro Solid Phase Purified αvβ3 Binding Assay The vitronectin/αvβ3 binding assay methods were derived from Mehta et al. (Biochem J. 1998, 330, 861). Human αvβ3 (Chemicon International Inc., Temecula, Calif.), at a concentration of 1 μg/ml dissolved in Tris buffer (20 mM Tris, 1 mM CaCl2, 1 mM MgCl2, 10 μM MnCl2, 150 mM NaCl), was immobilized on Immulon 96 well plates (Dynex Technologies, Chantilly, Va.) overnight at 4° C. Plates were washed and treated with blocking buffer (3% BSA in Tris buffer) for 2 h at 37 C. Plates were then rinsed 2 times in Tris buffer containing 0.3% BSA and 0.2% Tween20 (polyoxyethylenesorbitan monolaurate). Five minutes prior to the addition of 5 nM vitronectin (Sigma, St. Louis, Mo.), compounds of the invention were added to wells in duplicate. Each plate included c-RGDfV as an internal control. Following a 3 hour incubation at 37° C., plates were washed 5 times in assay buffer. An anti-human vitronectin IgG rabbit polyclonal antibody (Calbiochem, San Diego, Calif.) was added (1:2000) and plates were incubated for 1 hour at room temperature. VectaStain ABC peroxidase kit reagents (Vector Laboratories, Burlingame, Calif.) employing a biotin labeled anti-rabbit IgG, were utilized for detection of bound antibody. Plates were read at 490 nm on a Molecular Devices (Sunnyvale, Calif.) microplate reader. […] The plate was covered and incubated overnight at 4° C. The GPIIb/IIIa solution was discarded and 150 μl of 5% BSA was added and incubated at RT for 1–3 h. The plate was washed extensively with modified Tyrodes buffer. Biotinylated fibrinogen (25 μl/well) at 2× final concentration was added to the wells that contain the test compounds (25 μl/well). The plate was covered and incubated at RT for 2–4 h. Twenty minutes prior to incubation completion, one drop of Reagent A (VectaStain ABC Horse Radish Peroxidase kit, Vector Laboratories, Inc.) and one drop Reagent B were added with mixing to 5 mL modified Tyrodes buffer mix and let stand. The ligand solution was discarded and the plate washed (5×200 μl/well) with modified Tyrodes buffer. Vecta Stain HRP-Biotin-Avidin reagent (50 μl/well, as prepared above) was added and incubated at RT for 15 min. The Vecta Stain solution was discarded and the wells washed (5×200 μl/well) with modified Tyrodes buffer. Developing buffer (10 mL of 50 mM citrate/phosphate buffer @ pH 5.3, 6 mg o-phenylenediamine, 6 μl 30% H2O2; 50 μl/well) was added and incubated at rt for 3–5 min, and then 2 N H2SO4 (50 μl/well) was added. The absorbance was read at 490 nm.

The target in a further experiment is GPIIb/IIIa (Homo sapiens, UniProt P05106+P08514). The experiment is described as follows: In vitro solid phase purified glycoprotein IIb/IIIa binding assay (biotinylated fibrinogen). To be noted: RGD-affinity purified GPIIb/IIIa, biotinylated fibrinogen; read-out: GPIIb/IIIa Binding IC50. On the procedure: as §1
GPIIb/IIIa, sequence (P08514 32-887 limits assumed): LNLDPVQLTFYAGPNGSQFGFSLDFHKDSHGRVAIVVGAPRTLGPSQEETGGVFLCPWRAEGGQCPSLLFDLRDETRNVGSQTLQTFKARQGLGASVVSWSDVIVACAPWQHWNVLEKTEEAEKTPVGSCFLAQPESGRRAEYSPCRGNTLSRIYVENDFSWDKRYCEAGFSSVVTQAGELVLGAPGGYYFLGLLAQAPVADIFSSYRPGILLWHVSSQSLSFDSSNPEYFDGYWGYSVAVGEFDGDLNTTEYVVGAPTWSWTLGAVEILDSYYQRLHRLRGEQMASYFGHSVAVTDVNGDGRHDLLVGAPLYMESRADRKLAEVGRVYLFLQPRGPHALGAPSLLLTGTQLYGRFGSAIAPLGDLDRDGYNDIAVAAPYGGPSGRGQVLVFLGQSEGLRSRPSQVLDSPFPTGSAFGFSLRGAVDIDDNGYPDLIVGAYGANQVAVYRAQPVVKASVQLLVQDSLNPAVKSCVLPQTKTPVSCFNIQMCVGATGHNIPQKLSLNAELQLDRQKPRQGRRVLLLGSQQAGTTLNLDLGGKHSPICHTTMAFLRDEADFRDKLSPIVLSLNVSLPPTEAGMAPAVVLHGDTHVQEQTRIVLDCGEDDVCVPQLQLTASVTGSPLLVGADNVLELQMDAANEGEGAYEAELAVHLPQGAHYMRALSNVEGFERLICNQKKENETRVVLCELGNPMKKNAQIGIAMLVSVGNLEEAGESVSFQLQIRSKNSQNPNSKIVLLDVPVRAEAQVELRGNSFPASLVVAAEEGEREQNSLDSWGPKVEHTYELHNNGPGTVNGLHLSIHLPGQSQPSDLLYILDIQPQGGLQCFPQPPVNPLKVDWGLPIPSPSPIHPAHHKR
GPIIb/IIIa, sequence (P08514 891-1039 partner limits assumed): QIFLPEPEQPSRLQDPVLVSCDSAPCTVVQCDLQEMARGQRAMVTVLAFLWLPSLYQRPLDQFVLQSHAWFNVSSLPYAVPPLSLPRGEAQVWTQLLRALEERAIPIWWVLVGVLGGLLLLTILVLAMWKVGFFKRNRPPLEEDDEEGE
GPIIb/IIIa, sequence (P05106 27-788): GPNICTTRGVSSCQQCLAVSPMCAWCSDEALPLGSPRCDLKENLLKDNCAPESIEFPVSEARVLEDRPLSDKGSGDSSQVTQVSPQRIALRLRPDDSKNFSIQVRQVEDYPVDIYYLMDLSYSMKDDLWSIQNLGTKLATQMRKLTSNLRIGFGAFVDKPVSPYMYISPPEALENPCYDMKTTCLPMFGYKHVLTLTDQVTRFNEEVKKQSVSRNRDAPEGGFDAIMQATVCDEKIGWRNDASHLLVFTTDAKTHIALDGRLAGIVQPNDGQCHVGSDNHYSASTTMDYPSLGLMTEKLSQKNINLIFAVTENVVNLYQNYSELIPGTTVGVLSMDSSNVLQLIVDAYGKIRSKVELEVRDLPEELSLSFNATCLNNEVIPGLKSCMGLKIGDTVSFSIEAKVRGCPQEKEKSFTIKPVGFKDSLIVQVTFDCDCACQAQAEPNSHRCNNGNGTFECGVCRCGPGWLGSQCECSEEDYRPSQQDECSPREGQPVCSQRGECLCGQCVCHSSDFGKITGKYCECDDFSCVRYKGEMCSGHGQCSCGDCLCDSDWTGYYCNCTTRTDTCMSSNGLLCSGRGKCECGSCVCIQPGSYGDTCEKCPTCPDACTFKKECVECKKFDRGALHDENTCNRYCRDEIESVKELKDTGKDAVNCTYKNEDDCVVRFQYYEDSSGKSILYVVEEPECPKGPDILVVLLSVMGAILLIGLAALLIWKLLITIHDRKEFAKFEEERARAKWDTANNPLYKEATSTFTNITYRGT

T1 sequence (P06756 31-889 limits assumed): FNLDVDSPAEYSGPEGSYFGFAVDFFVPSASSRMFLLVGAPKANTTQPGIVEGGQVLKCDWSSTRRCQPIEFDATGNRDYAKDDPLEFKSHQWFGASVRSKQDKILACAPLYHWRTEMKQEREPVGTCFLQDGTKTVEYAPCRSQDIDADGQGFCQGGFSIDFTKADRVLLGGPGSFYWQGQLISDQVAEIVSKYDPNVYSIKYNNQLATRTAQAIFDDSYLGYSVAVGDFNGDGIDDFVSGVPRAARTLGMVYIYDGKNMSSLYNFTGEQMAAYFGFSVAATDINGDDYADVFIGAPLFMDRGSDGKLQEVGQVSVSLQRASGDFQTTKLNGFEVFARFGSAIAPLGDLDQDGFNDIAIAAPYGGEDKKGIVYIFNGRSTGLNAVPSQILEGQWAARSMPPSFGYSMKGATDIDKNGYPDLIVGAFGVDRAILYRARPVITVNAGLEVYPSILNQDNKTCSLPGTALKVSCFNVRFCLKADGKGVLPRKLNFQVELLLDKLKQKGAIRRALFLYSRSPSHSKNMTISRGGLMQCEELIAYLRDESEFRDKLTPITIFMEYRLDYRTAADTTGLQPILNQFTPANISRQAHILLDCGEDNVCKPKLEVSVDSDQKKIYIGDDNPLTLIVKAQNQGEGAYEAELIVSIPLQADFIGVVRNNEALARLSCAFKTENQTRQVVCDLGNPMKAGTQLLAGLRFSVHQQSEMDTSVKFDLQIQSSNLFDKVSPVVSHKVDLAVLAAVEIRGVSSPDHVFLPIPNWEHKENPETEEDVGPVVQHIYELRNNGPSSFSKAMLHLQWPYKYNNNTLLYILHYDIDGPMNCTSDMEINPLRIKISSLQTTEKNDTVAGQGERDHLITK
T1 sequence (P06756 891-1048 partner limits assumed): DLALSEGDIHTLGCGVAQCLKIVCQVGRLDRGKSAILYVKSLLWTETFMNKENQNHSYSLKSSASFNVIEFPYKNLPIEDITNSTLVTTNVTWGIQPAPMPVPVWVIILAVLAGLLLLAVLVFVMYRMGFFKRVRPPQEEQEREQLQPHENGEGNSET
T1 sequence (P05106 27-788): as the sequence (P05106 27-788) above

For the compound `COc1cccc([C@@H](CC(=O)O)c2nc3ccc(/C=C/CNc4ccccn4)cc3c(=O)n2C)c1` [Compound 18, (βR)-3,4-dihydro-β-(3-methoxyphenyl)-3-methyl-4-oxo-6-[(1E)-3-(2-pyridinylamino)-1-propenyl]-2-quinazolinepropanoic Acid], the IC50 on Human αvβ3 was 18000 nM; on GPIIb/IIIa, more than 50000 nM.

`NC/C=C/c1ccc2nc(C[C@H](NC(=O)OCc3ccccc3)C(=O)O)[nH]c(=O)c2c1` [Compound 19, 6-[(1E)-3-amino-1-propenyl]-(αS)-3,4-dihydro-4-oxo-α-[[(phenylmethoxy)carbonyl]amino]-2-quinazolinepropanoic acid]: the values for the IC50 at Human αvβ3 and at GPIIb/IIIa were more than 5000 nM and 450 nM, respectively.

`O=C(N[C@@H](Cc1nc2ccc(C#CCNC3=NCCN3)cc2c(=O)[nH]1)C(=O)O)OCc1ccccc1` [Compound 20, 6-[3-[(4,5-dihydro-1H-imidazol-2-yl)amino]-1-propynyl]-(αS)-3,4-dihydro-4-oxo-α-[[(phenylmethoxy)carbonyl]amino]-2-quinazolinepropanoic acid]: the IC50 is more than 5000 nM at Human αvβ3 and 660 nM on GPIIb/IIIa.

Regarding `O=C(O)[C@H](Cc1nc2ccc(/C=C/CNC3=NCCN3)cc2c(=O)[nH]1)NS(=O)(=O)c1c(Cl)cc(Cl)cc1Cl` [Compound 21, 6-[(1E)-3-[(4,5-dihydro-1H-imidazol-2-yl)amino]-1-propenyl]-(αS)-3,4-dihydro-4-oxo-α-[[(2,4,6-trichlorophenyl)sulfonyl]amino]-2-quinazolinepropanoic acid], the IC50 was more than 50 nM on Human αvβ3 and 1600 nM at GPIIb/IIIa.

As for `CN(C)c1cccc2c(S(=O)(=O)N[C@@H](Cc3nc4ccc(/C=C/CNC5=NCCN5)cc4c(=O)[nH]3)C(=O)O)cccc12` [Compound 22, 6-[(1E)-3-[(4,5-dihydro-1H-imidazol-2-yl)amino]-1-propenyl]-α-[[[5-(dimethylamino)-1-naphthalenyl]sulfonyl]amino]-(αS)-3,4-dihydro-4-oxo-2-quinazolinepropanoic acid], the values for the IC50 at Human αvβ3 and on GPIIb/IIIa were more than 500 nM and 1200 nM, respectively.

As to `O=C(O)[C@H](Cc1nc2ccc(/C=C/CNc3ccccn3)cc2c(=O)[nH]1)NS(=O)(=O)c1ccc2ccccc2c1` [Compound 24, (αS)-3,4-dihydro-α-[(2-naphthalenylsulfonyl)amino]-4-oxo-6-[(1E)-3-(2-pyridinylamino)-1-propenyl]-2-quinazolinepropanoic acid], the IC50 came out at 23 nM at Human αvβ3 and 1400 nM on GPIIb/IIIa.

With `O=C(O)[C@H](Cc1nc2ccc(/C=C/CNc3ccccn3)cc2c(=O)[nH]1)NS(=O)(=O)c1ccc(C(F)(F)F)cc1` [Compound 25, (αS)-3,4-dihydro-4-oxo-6-[(1E)-3-(2-pyridinylamino)-1-propenyl]-α-[[[4-(trifluoromethyl)phenyl]sulfonyl]amino]-2-quinazolinepropanoic acid], the IC50 was 72 nM on Human αvβ3 and 9600 nM on GPIIb/IIIa.

For `COc1ccc(S(=O)(=O)N[C@@H](Cc2nc3ccc(/C=C/CNc4ccccn4)cc3c(=O)[nH]2)C(=O)O)cc1` [Compound 26, (αS)-3,4-dihydro-α-[[(4-methoxyphenyl)sulfonyl]amino]-4-oxo-6-[(1E)-3-(2-pyridinylamino)-1-propenyl]-2-quinazolinepropanoic acid], the IC50 was found to be 15 nM at Human αvβ3 and 1300 nM at GPIIb/IIIa.

Turning to `Cc1c(C)c(C)c(S(=O)(=O)N[C@@H](Cc2nc3ccc(/C=C/CN4CCCC4=N)cc3c(=O)[nH]2)C(=O)O)c(C)c1C` [Compound 27, (αS)-3,4-dihydro-6-[(1E)-3-(2-imino-1-pyrrolidinyl)-1-propenyl]-4-oxo-α-[[(2,3,4,5,6-pentamethylphenyl)sulfonyl]amino]-2-quinazolinepropanoic acid], the IC50 at Human αvβ3 was determined as 120 nM; on GPIIb/IIIa, 19 nM.

Consider `O=C(O)[C@H](Cc1nc2ccc(/C=C/CNc3ccccn3)cc2c(=O)[nH]1)NS(=O)(=O)c1ccc(S(=O)(=O)c2ccccc2)s1` [Compound 28, (αS)-3,4-dihydro-4-oxo-α-[[[5-(phenylsulfonyl)-2-thienyl]sulfonyl]amino]-6-[(1E)-3-(2-pyridinylamino)-1-propenyl]-2-quinazolinepropanoic acid], for which the IC50 is more than 300 nM on Human αvβ3 and 2200 nM on GPIIb/IIIa.

As for `Cc1cccc(Cl)c1S(=O)(=O)N[C@@H](Cc1nc2ccc(/C=C/CNc3ccccn3)cc2c(=O)[nH]1)C(=O)O` [Compound 29, α-[[(2-chloro-6-methylphenyl)sulfonyl]amino]-(αS)-3,4-dihydro-4-oxo-6-[(1E)-3-(2-pyridinylamino)-1-propenyl]-2-quinazolinepropanoic acid], the IC50 at Human αvβ3 turned out to be 38 nM; at GPIIb/IIIa it was 240 nM.

As to `Cc1c(C)c(C)c(S(=O)(=O)N[C@@H](Cc2nc3ccc(/C=C/CNc4nccn4C)cc3c(=O)[nH]2)C(=O)O)c(C)c1C` [Compound 30, (αS)-3,4-dihydro-6-[(1E)-3-[(1-methyl-1H-imidazol-2-yl)amino]-1-propenyl]-4-oxo-α-[[(2,3,4,5,6-pentamethylphenyl)sulfonyl]amino]-2-quinazolinepropanoic acid], the IC50 on Human αvβ3 turned out to be 200 nM; at GPIIb/IIIa, 83 nM.

On to `O=C(O)[C@H](Cc1nc2ccc(/C=C/CNc3ccccn3)cc2c(=O)[nH]1)NS(=O)(=O)c1ccc(-c2ccon2)s1` [Compound 31, (αS)-3,4-dihydro-α-[[[5-(3-isoxazolyl)-2-thienyl]sulfonyl]amino]-4-oxo-6-[(1E)-3-(2-pyridinylamino)-1-propenyl]-2-quinazolinepropanoic acid], for which the IC50 on Human αvβ3 stood at 70 nM; at GPIIb/IIIa it was 1800 nM.

Take `COc1ccc(OC)c(S(=O)(=O)N[C@@H](Cc2nc3ccc(/C=C/CNc4ccccn4)cc3c(=O)[nH]2)C(=O)O)c1` [Compound 32, α-[[(2,5-dimethoxyphenyl)sulfonyl]amino]-(αS)-3,4-dihydro-4-oxo-6-[(1E)-3-(2-pyridinylamino)-1-propenyl]-2-quinazolinepropanoic acid]: the IC50 came to 21 nM on Human αvβ3 and 3900 nM on GPIIb/IIIa.

Regarding `COc1ccc(S(=O)(=O)N[C@@H](Cc2nc3ccc(/C=C/CNc4ccccn4)cc3c(=O)[nH]2)C(=O)O)cc1OC` [Compound 33, α-[[(3,4-dimethoxyphenyl)sulfonyl]amino]-(αS)-3,4-dihydro-4-oxo-6-[(1E)-3-(2-pyridinylamino)-1-propenyl]-2-quinazolinepropanoic acid], the IC50 at Human αvβ3 turned out to be 13 nM; on GPIIb/IIIa, 1100 nM.

With `O=C(O)[C@H](Cc1nc2ccc(/C=C/CNc3ccccn3)cc2c(=O)[nH]1)NS(=O)(=O)c1cccs1` [Compound 34, (αS)-3,4-dihydro-4-oxo-6-[(1E)-3-(2-pyridinylamino)-1-propenyl]-α-[(2-thienylsulfonyl)amino]-2-quinazolinepropanoic acid], the IC50 at Human αvβ3 was 83 nM; on GPIIb/IIIa, 1600 nM.

On to `O=C(O)[C@H](Cc1nc2ccc(/C=C/CNc3ccccn3)cc2c(=O)[nH]1)NS(=O)(=O)c1ccc(OC(F)(F)F)cc1` [Compound 35, (αS)-3,4-dihydro-4-oxo-6-[(1E)-3-(2-pyridinylamino)-1-propenyl]-α-[[[4-(trifluoromethoxy)phenyl]sulfonyl]amino]-2-quinazolinepropanoic acid], for which the IC50 on Human αvβ3 was determined as 59 nM; at GPIIb/IIIa, 4800 nM.

For the compound `Cc1nn(C)c(Cl)c1S(=O)(=O)N[C@@H](Cc1nc2ccc(/C=C/CNc3ccccn3)cc2c(=O)[nH]1)C(=O)O` [Compound 36, α-[[(5-chloro-1,3-dimethyl-1H-pyrazol-4-yl)sulfonyl]amino]-(αS)-3,4-dihydro-4-oxo-6-[(1E)-3-(2-pyridinylamino)-1-propenyl]-2-quinazolinepropanoic acid], the IC50 on Human αvβ3 was 25 nM; at GPIIb/IIIa it was 2700 nM.

For `Cc1noc(C)c1S(=O)(=O)N[C@@H](Cc1nc2ccc(/C=C/CNc3ccccn3)cc2c(=O)[nH]1)C(=O)O` [Compound 37, α-[[(3,5-dimethyl-4-isoxazolyl)sulfonyl]amino]-(αS)-3,4-dihydro-4-oxo-6-[(1E)-3-(2-pyridinylamino)-1-propenyl]-2-quinazolinepropanoic acid], the IC50 at Human αvβ3 came to 54 nM; on GPIIb/IIIa, 700 nM.
